Entries after “also recorded” stand apart in the source; their conditions may differ.
How the values were obtained:
Erk1/2 = assay: Erk phosphorylation by immunoblotting in sinusoidal endothelial cells; assay type: cell-based, rat; settings: 2 h
Protocol: Cell isolation and culture. Sinusoidal endothelial cells were isolated from male Sprague-Dawley rats (450-500 g) (Harlan, Indianapolis, Ind.). In brief, after in situ perfusion of the liver with 20 mg/100 mg pronase (Roche Molecular Biochemicals, Indianapolis, Ind.), followed by collagenase (Worthington Biochemical, Lakewood, N.J.), dispersed cell suspensions were removed from a layered discontinuous density gradient of 8.2 and 15.6% Accudenz (Accurate Chemical and Scientific, Westbury, N.Y.), further purified by centrifugal elutriation (18 ml/min flow), and were grown in medium containing 20% serum (10% horse/calf). The purity of endothelial cells was documented by their uptake of fluorescently labeled di-l-acetoacetylated low-density lipoprotein as described (21). […]
Immunoblotting, Immunoblotting was performed by using specified primary antibodies, including anti-eNOS antibody (1:1,000; BD Transduction Laboratories, San Jose, Calif.), anti-phospho-eNOS-Ser^1177 (1:1,000; BD Transduction Laboratories or Cell Signaling Technology), anti-phospho-Akt, anti-Akt (Cell Signaling Technology, Beverly, Mass.), and horseradish peroxidase-conjugated secondary antibody. Specific signals were visualized using enhanced chemiluminescence as per the manufacturer's instructions and were scanned and quantitated with standard software. […]

eNOS = biological target: T1, eNOS (Rattus norvegicus, UniProt Q62600); assay: NOS activity assay (conversion of L-[3H]arginine to L-[3H]citrulline) in sinusoidal endothelial cell lysates; assay type: cell-based
T1 construct: endogenous in cells; host or cells: primary liver sinusoidal endothelial cells from male Sprague-Dawley rats (normal or bile-duct-ligated)
T1 sequence (Q62600 1-1202): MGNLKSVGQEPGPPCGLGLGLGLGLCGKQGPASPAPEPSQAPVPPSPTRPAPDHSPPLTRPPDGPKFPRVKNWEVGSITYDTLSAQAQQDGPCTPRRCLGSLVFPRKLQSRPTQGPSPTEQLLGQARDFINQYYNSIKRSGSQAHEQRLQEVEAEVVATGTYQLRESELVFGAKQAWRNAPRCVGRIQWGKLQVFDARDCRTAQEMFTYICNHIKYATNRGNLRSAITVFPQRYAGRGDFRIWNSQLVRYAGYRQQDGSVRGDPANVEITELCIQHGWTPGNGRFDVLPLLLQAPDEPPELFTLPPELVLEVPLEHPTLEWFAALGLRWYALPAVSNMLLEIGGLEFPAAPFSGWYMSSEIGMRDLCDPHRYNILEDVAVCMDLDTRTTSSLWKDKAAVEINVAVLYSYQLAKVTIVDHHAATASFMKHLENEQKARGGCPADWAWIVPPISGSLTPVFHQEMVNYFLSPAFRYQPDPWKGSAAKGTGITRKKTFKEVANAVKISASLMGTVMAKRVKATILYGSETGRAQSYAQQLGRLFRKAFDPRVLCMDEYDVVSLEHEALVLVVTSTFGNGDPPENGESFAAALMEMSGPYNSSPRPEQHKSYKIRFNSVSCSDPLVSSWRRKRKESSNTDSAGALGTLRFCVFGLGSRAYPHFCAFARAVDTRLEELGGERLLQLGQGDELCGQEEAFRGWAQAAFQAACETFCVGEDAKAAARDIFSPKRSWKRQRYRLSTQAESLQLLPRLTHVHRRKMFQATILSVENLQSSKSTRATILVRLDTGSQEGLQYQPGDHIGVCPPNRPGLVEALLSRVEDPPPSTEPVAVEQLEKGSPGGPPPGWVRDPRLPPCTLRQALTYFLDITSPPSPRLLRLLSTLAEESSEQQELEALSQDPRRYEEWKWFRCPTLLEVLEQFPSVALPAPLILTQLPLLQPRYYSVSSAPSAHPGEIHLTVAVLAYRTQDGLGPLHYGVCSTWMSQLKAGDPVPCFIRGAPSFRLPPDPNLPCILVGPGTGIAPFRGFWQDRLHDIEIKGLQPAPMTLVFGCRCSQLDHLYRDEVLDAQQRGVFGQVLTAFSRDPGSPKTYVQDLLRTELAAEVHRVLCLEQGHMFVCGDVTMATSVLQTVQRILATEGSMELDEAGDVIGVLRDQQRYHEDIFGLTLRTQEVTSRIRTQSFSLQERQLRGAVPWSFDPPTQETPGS
Protocol: Cell isolation and culture. Sinusoidal endothelial cells were isolated from male Sprague-Dawley rats (450-500 g) (Harlan, Indianapolis, Ind.). In brief, after in situ perfusion of the liver with 20 mg/100 mg pronase (Roche Molecular Biochemicals, Indianapolis, Ind.), followed by collagenase (Worthington Biochemical, Lakewood, N.J.), dispersed cell suspensions were removed from a layered discontinuous density gradient of 8.2 and 15.6% Accudenz (Accurate Chemical and Scientific, Westbury, N.Y.), further purified by centrifugal elutriation (18 ml/min flow), and were grown in medium containing 20% serum (10% horse/calf). The purity of endothelial cells was documented by their uptake of fluorescently labeled di-l-acetoacetylated low-density lipoprotein as described (21). Only primary sinusoidal endothelial isolates of >95% purity were used for study. Experiments were performed with cells frorrr a minimum three different isolations (for all experiments).
Animal model of liver injury and portal hypedension. Liver injury and portal hypertension were induced by performing bile duct ligation in 450- to 500-gram male retired breeder Sprague-Dawley rats as described in Liu and 20- to 25-gram male BALB/c mice. Briefly, bile duct ligation was performed by surgical isolation and ligation of the common bile duct. This model creates a portal-based fibrogenic response and portal hypertension 10-14 days after surgery (Liu). For study of injured sinusoidal endothelial cells, we used the rat model of bile duct ligation (10-14 days postsurgery); for in vivo study (primarily to conserve the use of active compound), we used the mouse model of bile duct ligation (examining portal pressure 4 wk postsurgery). In sham-operated rats or mice, laparotomy without isolation and section of the bile duct was performed. Studies were approved by the local Institutional Animal Care and Use Committees. Portal pressure measurement. Portal hypertension was induced in male BALB/c mice by bile duct ligation as above. Cicletanine (5 mg·kg^−1·day^−1) or vehicle was given by gavage as a single daily dose for 10 days before portal pressure measurement as described in Liue. In brief, mice were anesthetized, and an intravenous catheter (Becton Dickinson Vascular Access, Sandy, Utah) was introduced in the portal vein and secured with a silk tie. A calibrated low-pressure transducer (Digi-Med, Louisville, Ky.) was connected to the portal vein catheter, and portal pressure was recorded continuously using the Digi-Med Integrator 200 System (Digi-bled).
NOS activity assay. NOS activity from sinusoidal endothelial cell lysates was assessed by measuring the conversion of L-[3H]arginine to L-[3H]citrulline as described (6) per the manufacturer's instructions (Cayman Chemical). In brief, triplicate samples of cell lysates were incubated with a reaction buffer containing 3 pmol of L-[3H]arginine (45 Ci/mmol), 0-50 μM arginine, 1 mM NADPH, 100 nM calmodulin (CaM), 2 mM CaCl2, and 30 μM BH4 in a volume of 50-100 μl at room temperature for 30 min and at 37° C. for an additional 30 min in the presence and absence of 1 mM NG-nitro-L-arginine methyl ester (L-NAME). […] Radiolabeled counts per minute of generated L-citrulline were measured and used to determine L-NAME-inhibitable NOS activity (thus, each experiment included total counts and background counts). […] The reductase activities of sinusoidal endothelial cells with or without cicletanine exposure were determined using the NADPH-dependent cytochrome c assay. […]

increase in eNOS activity, 6 h compared with 2 h (eNOS; cicletanine 100 nM): greater at 6 h
eNOS activity above basal level at 2 and 6 h after exposure (eNOS; cicletanine 100 nM, cell lysates at 2 and 6 h): consistent increases
eNOS activity (conversion of arginine to citrulline) (eNOS; cicletanine 100 nM, normal sinusoidal endothelial cells): robust eNOS activity
Compound: Cc1ncc2c(c1O)COC2c1ccc(Cl)cc1 (stereo not drawn) [cicletanine, 3-(4-chlorophenyl)-1,3-dihydro-7-hydroxy-6-methylfuro-(3,4-c) pyridine]
phosphorylation of Erk (Erk1/2; 50 or 100 nM, normal sinusoidal endothelial cells): increased in a dose-dependent manner; also recorded: robustly induced
Erk1/2 phosphorylation (Erk1/2; sinusoidal endothelial cells injured by bile duct ligation): increased
eNOS activity (eNOS; sinusoidal endothelial cells injured by bile duct ligation, 2 h): increase

Source: US20170056380A1, “Systems, Methods, Techniques, and Compounds in Research and Treatment of Portal Hypertension and other Conditions” (priority 2014, published 2017)
